Measurements published in patent US9693997B2, “Antiviral compounds” (priority 2013, dated 2017).
Structures can show the parent of a compound that is named as a salt. Where two headings read alike, the source gives them in different places.

Tests used:
[1] = tested on: Pseudotyped HCV GT1b particles (HCVpp), entry into Huh7-high CD81 cells; experiment: microbe, parasite or virus in culture; assay type: cell-based, HCV GT1b Con1 strain
[2] = tested on: pseudotyped VSV G particles (VSVpp) in Huh7-high CD81 cells; experiment: microbe, parasite or virus in culture; assay type: cell-based, vesicular stomatitis virus
[3] = Hepatitis C virus, GT1B, 72 h, read-out: HCVpp GT-1b (EC50, μM)
[4] = Vesicular stomatitis virus, 72 h, read-out: VSVpp (EC50, μM)

Compound | EC50 [1, 3] | EC50 [2, 4] | EC50 ([1]; read-out: HCVpp GT-1b (EC50)) | EC50 ([2]; read-out: VSVpp (EC50))
CC(C)(C)OC(=O)NCCOc1ccc(-c2c(Cl)cc(Nc3n[nH]c(N)n3)cc2C(F)(F)F)cc1 [Compound 134, {2-[4′-(5-Amino-1H-[1,2,4]triazol-3-ylamino)-6′-chloro-2′-trifluoromethyl-biphenyl-4-yloxy]-ethyl}-carbamic acid tert-butyl ester] | 0.081 µM | > 10 µM | – | –
Nc1nc(Nc2cc(Cl)c(-c3ccc(S(N)(=O)=O)cc3)c(C(F)(F)F)c2)n[nH]1 [Compound 171, 4′-(5-amino-1H-1,2,4-triazol-3-ylamino)-2′-chloro-6′-(trifluoromethyl)biphenyl-4-sulfonamide] | 0.028 µM | 5.23 µM | – | –
CN(C)C(=O)c1ccc(-c2c(Cl)cc(Nc3n[nH]c(N)n3)cc2Cl)cc1 [Compound 113, 4′-(5-Amino-1H-[1,2,4]triazol-3-ylamino)-2′,6′-dichloro-biphenyl-4-carboxylic acid dimethylamide] | 0.079 µM | 43.2 µM | – | –
COc1cc(-c2c(Cl)cc(Nc3n[nH]c(N)n3)cc2C(F)(F)F)ccc1S(=O)(=O)NC1CCN(C(=O)OC(C)(C)C)CC1 [Compound 163, tert-butyl 4-(4′-(5-amino-1H-1,2,4-triazol-3-ylamino)-2′-chloro-3-methoxy-6′-(trifluoromethyl)biphenyl-4-ylsulfonamido)piperidine-1-carboxylate] | 0.005 µM | > 10 µM | – | –
CCCCC(=O)Nc1ccc(-c2c(Cl)cc(Nc3n[nH]c(N)n3)cc2Cl)cc1 [Compound 9, Pentanoic acid [4′-(5-amino-1H-[1,2,4]triazol-3-ylamino)-2′,6′-dichloro-biphenyl-4-yl]-amide] | 0.014 µM | 5.05 µM | – | –
[4′-(5-amino-1H-[1,2,4]triazol-3-ylamino)-2′-chloro-6′-trifluoromethyl-biphenyl-4-yl]-carbamic acid propyl ester [Compound 238] | – | – | 0.078 µM | 24.9 µM
Nc1nc(Nc2cc(Cl)c(-c3ccc(S(=O)(=O)N[C@H]4C[C@@H](O)C4)cc3)c(C(F)(F)F)c2)n[nH]1 [Compound 174, 4′-(5-amino-1H-1,2,4-triazol-3-ylamino)-2′-chloro-N-(cis-3-hydroxycyclobutyl)-6′-(trifluoromethyl)biphenyl-4-sulfonamide] | 0.038 µM | > 10 µM | – | –
Nc1n[nH]c(Nc2cc(Cl)c(-c3ccc(OC4CCCNC4)cc3)c(Cl)c2)n1 (stereo not shown) [Compound 259] | 0.089 µM | 4.27 µM | – | –
Nc1nc(Nc2cc(Cl)c(-c3ccc(S(=O)(=O)N4CCC[C@H]4C(=O)O)cc3)c(C(F)(F)F)c2)n[nH]1 [Compound 51, (S)-1-[4′-(5-Amino-1H-[1,2,4]triazol-3-ylamino)-2′-chloro-6′-trifluoromethyl-biphenyl-4-sulfonyl]-pyrrolidine-2-carboxylic acid] | 0.678 µM | > 10 µM | – | –
Nc1nc(Nc2cc(Cl)c(-c3ccc(S(=O)(=O)NC4CC(O)C4)cc3)c(C(F)(F)F)c2)n[nH]1 (stereo not shown) [Compound 172, 4′-(5-amino-1H-1,2,4-triazol-3-ylamino)-2′-chloro-N-(3-hydroxycyclobutyl)-6′-(trifluoromethyl)biphenyl-4-sulfonamide] | 0.032 µM | 45.1 µM | – | –
COc1ccc(-c2c(Cl)cc(Nc3n[nH]c(N)n3)cc2C(F)(F)F)cc1S(=O)(=O)NCCO [Compound 175, 4′-(5-amino-1H-1,2,4-triazol-3-ylamino)-2′-chloro-N-(2-hydroxyethyl)-4-methoxy-6′-(trifluoromethyl)biphenyl-3-sulfonamide] | 0.018 µM | > 10 µM | – | –
Nc1nc(Nc2cc(Cl)c(-c3ccc(S(=O)(=O)N4CCCC4)cc3)c(Cl)c2)n[nH]1 [Compound 220, N*3*-[2,6-Dichloro-4′-(pyrrolidine-1-sulfonyl)-biphenyl-4-yl]-1H-[1,2,4]triazole-3,5-diamine] | 0.028 µM | 24.8 µM | – | –
CS(=O)(=O)Nc1ccc(-c2c(Cl)cc(Nc3n[nH]c(N)n3)cc2Cl)cc1F [Compound 46, N-[4′-(5-Amino-1H-[1,2,4]triazol-3-ylamino)-2′,6′-dichloro-3-fluoro-biphenyl-4-yl]-methanesulfonamide] | 0.414 µM | > 10 µM | – | –
Nc1nc(Nc2cc(Cl)c(-c3ccc(NC(=O)C4CCS(=O)(=O)CC4)cc3)c(C(F)(F)F)c2)n[nH]1 [Compound 239] | 0.122 µM | > 10 µM | – | –
Nc1n[nH]c(Nc2cc(F)c(-c3ccc4ccccc4c3)c(C(F)(F)F)c2)n1 [Compound 249, N^5-(3-Fluoro-4-naphthalen-2-yl-5-trifluoromethylphenyl)-1H-[1,2,4]-triazole-3,5-diamine] | 0.991 µM | 17.2 µM | – | –
Nc1nc(Nc2cc(Cl)c(-c3ccc(S(=O)(=O)CC4CCNCC4)cc3)c(C(F)(F)F)c2)n[nH]1 [Compound 40, N*3*-[2-Chloro-4′-(piperidin-4-ylmethanesulfonyl)-6-trifluoromethyl-biphenyl-4-yl]-1H-[1,2,4]triazole-3,5-diamine; hydrochloride] | 0.073 µM | 31.7 µM | – | –

Compound | EC50 [1, 3] | EC50 [2, 4] | EC50 ([1]; read-out: HCVpp GT-1b (EC50)) | EC50 ([2]; read-out: VSVpp (EC50))
CC(C)C(=O)Nc1ccc(-c2c(Cl)cc(Nc3n[nH]c(N)n3)cc2Cl)cc1 [Compound 251, N-[4′-(5-amino-1H-[1,2,4]triazol-3-ylamino)-2′,6′-dichloro-biphenyl-4-yl]-isobutyramide] | 0.041 µM | 32.5 µM | – | –
Nc1nc(Nc2cc(Cl)c(-c3ccc(OC4CCNCC4)cc3)c(Cl)c2)n[nH]1 [Compound 262, N*3*-[2,6-Dichloro-4′-(piperidin-4-yloxy)-biphenyl-4-yl]-1H-[1,2,4]triazole-3,5-diamine] | 0.05 µM | 4.87 µM | – | –
CNCCOc1ccc(-c2c(Cl)cc(Nc3n[nH]c(N)n3)cc2Cl)cc1 [Compound 263, N*3*-[2,6-Dichloro-4′-(2-methylamino-ethoxy)-biphenyl-4-yl]-1H-[1,2,4]triazole-3,5-diamine] | 0.059 µM | 3.75 µM | – | –
Nc1nc(Nc2cc(Cl)c(-c3ccc(S(=O)(=O)NCCO)cc3)c(C(F)(F)F)c2)n[nH]1 [Compound 161, 4′-(5-Amino-1H-[1,2,4]triazol-3-ylamino)-2′-chloro-6′-trifluoromethyl-biphenyl-4-sulfonic acid (2-hydroxy-ethyl)-amide] | 0.058 µM | 26.8 µM | – | –
Nc1nc(Nc2cc(Cl)c(-c3ccc(OC4CCNCC4)cc3)c(C(F)(F)F)c2)n[nH]1 [Compound 139, N*3*-[6-Chloro-4′-(piperidin-4-yloxy)-2-trifluoromethyl-biphenyl-4-yl]-1H-[1,2,4]triazole-3,5-diamine hydrochloride] | 0.042 µM | 5.66 µM | – | –
CCCCC(=O)Nc1ccc(-c2ccc(Nc3n[nH]c(N)n3)cc2)cc1 [Compound 53, Pentanoic acid [4′-(5-amino-1H-[1,2,4]triazol-3-ylamino)-biphenyl-4-yl]-amide] | 5.61 µM | 4.38 µM | – | –
CNC(=O)c1cccc(-c2c(F)cc(Nc3nc(N)n[nH]3)cc2C(F)(F)F)c1 [Compound 248, 4′-(5-Amino-2H-[1,2,4]-triazol-3-ylamino)-6′-fluoro-2′-trifluoromethyl-biphenyl-43-carboxylic acid methylamide] | 1.02 µM | > 10 µM | – | –
CN(CCOc1ccc(-c2c(Cl)cc(Nc3n[nH]c(N)n3)cc2Cl)cc1)C(=O)OC(C)(C)C [Compound 261, {2-[4′-(5-Amino-1H-[1,2,4]triazol-3-ylamino)-2′,6′-dichloro-biphenyl-4-yloxy]-ethyl}-methyl-carbamic acid tert-butyl ester] | 0.033 µM | 4.26 µM | – | –
COc1ccc(-c2c(Cl)cc(Nc3n[nH]c(N)n3)cc2C(F)(F)F)cc1OC(C)C [Compound 229, N*3*-(6-Chloro-3′-isopropoxy-4′-methoxy-2-trifluoromethyl-biphenyl-4-yl)-1H-[1,2,4]triazole-3,5-diamine] | 0.072 µM | 6.47 µM | – | –
COc1ccc(-c2c(Cl)cc(Nc3n[nH]c(N)n3)cc2C(F)(F)F)cc1S(=O)(=O)C(C)C [Compound 19, N*3*-[2-Chloro-4′-methoxy-3′-(propane-2-sulfonyl)-6-trifluoromethyl-biphenyl-4-yl]-1H-[1,2,4]triazole-3,5-diamine] | 0.049 µM | > 10 µM | – | –
CS(=O)(=O)c1ccc(-c2ccc(Nc3n[nH]c(N)n3)cc2Cl)c(F)c1 [Compound 157, N3-(2-chloro-2′-fluoro-4′-(methylsulfonyl)biphenyl-4-yl)-1H-1,2,4-triazole-3,5-diamine] | 1.33 µM | 5.16 µM | – | –
Cc1ccc(-c2c(F)cc(Nc3nc(N)n[nH]3)cc2C(F)(F)F)cc1 [Compound 247, N^5-[6-Fluoro-4′-methyl-2-trifluoromethylbiphenyl-4-yl]-1H-[1,2,4]-triazole-3,5-diamine] | 1.7 µM | 10.7 µM | – | –
Nc1nc(Nc2cc(Cl)c(-c3ccccc3)c(C(F)(F)F)c2)n[nH]1 [Compound 201, N3-(2-chloro-6-(trifluoromethyl)biphenyl-4-yl)-1H-1,2,4-triazole-3,5-diamine 2,2,2-trifluoroacetate] | 0.405 µM | 58.3 µM | – | –
CC(C)(C)N1Cc2ccc(-c3c(Cl)cc(Nc4n[nH]c(N)n4)cc3C(F)(F)F)cc2S1(=O)=O [Compound 10, N*3*-[4-(2-tert-Butyl-1,1-dioxo-2,3-dihydro-1H-1lambda*6*-benzo[d]isothiazol-6-yl)-3-chloro-5-trifluoromethyl-phenyl]-1H-[1,2,4]triazole-3,5-diamine] | 0.015 µM | > 10 µM | – | –
Nc1nc(Nc2cc(Cl)c(-c3cccc(C(F)(F)F)c3)c(Cl)c2)n[nH]1 [Compound 108, N-3-(2,6-Dichloro-3′-trifluoromethyl-biphenyl-4-yl)-1H-[1,2,4]triazole-3,5-diamine] | 0.014 µM | 29 µM | – | –
Nc1nc(Nc2cc(Cl)c(-c3ccc(S(=O)(=O)N4CCOCC4)cc3)c(C(F)(F)F)c2)n[nH]1 [Compound 36, N*3*-[2-Chloro-4′-(morpholine-4-sulfonyl)-6-trifluoromethyl-biphenyl-4-yl]-1H-[1,2,4]triazole-3,5-diamine] | 0.096 µM | 14.2 µM | – | –
